Laboratory results reported in patent US20050112573A1, “Method of detecting toxic substance” (priority 2001, published 2005).

Test system: yeast genes (level of expressed mRNA)
Experiment: DNA chip analysis of expressed mRNA of yeast genes after 2 h culture with a toxic chemical substance
Format: cell-based, Saccharomyces cerevisiae S288C
Conditions: for The level of expressed mRNA in the presence of chemical substance/ (ratio to absence): transport facilitation protein gene; for The level of expressed mRNA in the presence of chemical substance/: ratio to no chemical; for The level of expressed mRNA in the presence of chemical substance/ in its absence, gene YDL078C: yeast gene YDL078C
Summary of the method: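 Values are treated-to-control fluorescence ratios from a whole-yeast-genome DNA chip (65° C, over 12 h hybridization) using Cy3/Cy5-labelled cDNA from mRNA. Log-phase S288C cells in YPD at 25° C were exposed 2 h to a toxicant at sublethal, growth-inhibiting concentration.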

Substance: sodium dodecylbenzosulfonate [(17)]
- The level of expressed mRNA in the presence of chemical substance/ (ratio to absence), gene YBR122C (yeast gene YBR122C, mitochondria-located protein genes, 2 h culture with chemical): 0.9
- The level of expressed mRNA in the presence of chemical substance/ (ratio to absence) (yeast gene YBR127C): 0.8
- The level of expressed mRNA in the presence of chemical substance/ (ratio to absence) (yeast gene YBR132C): 1.1
- The level of expressed mRNA in the presence of chemical substance/in the absence of chemical substance (yeast gene YBR149W): 2.1
- The level of expressed mRNA in the presence of chemical substance/ (ratio to absence) (yeast gene YBR207W): 1.2
- The level of expressed mRNA in the presence of chemical substance/The level of expressed mRNA in the absence of chemical substance (yeast gene YBR214W): 1.1
- The level of expressed mRNA in the presence of chemical substance/ (ratio to absence) (yeast gene YBR241C): 1.0
- The level of expressed mRNA in the presence of chemical substance/ (ratio to absence), gene YBR251W (yeast gene YBR251W, mitochondria-located protein genes, 2 h culture with chemical): 0.9
- The level of expressed mRNA in the presence of chemical substance/in the absence of chemical substance (yeast gene YBR256C): 2.6
- The level of expressed mRNA in the presence of chemical substance/ (yeast gene YBR269C): 1.5
- The level of expressed mRNA in the presence of chemical substance/ (yeast gene YBR280C): 1.1
- The level of expressed mRNA in the presence of chemical substance/in the absence of chemical substance (yeast gene YBR284W): 1.1
- The level of expressed mRNA in the presence of chemical substance/ (yeast gene YBR285W): 2.5
- The level of expressed mRNA in the presence of chemical substance/ (ratio to absence) (yeast gene YBR291C): 0.9
- The level of expressed mRNA in the presence of chemical substance/ (yeast gene YBR292C): 0.9
- The level of expressed mRNA in the presence of chemical substance/ (ratio to absence) (yeast gene YBR293W): 1.0
- The level of expressed mRNA in the presence of chemical substance/in the absence of chemical substance (yeast gene YBR294W): 1.0
- The level of expressed mRNA in the presence of chemical substance/ (ratio to absence) (yeast gene YBR295W): 1.3
- The level of expressed mRNA in the presence of chemical substance/in the absence of chemical substance (yeast gene YBR296C): 3.8
- The level of expressed mRNA in the presence of chemical substance/ (in its absence), gene YBR298C (yeast gene YBR298C, ratio of DNA chip fluorescence intensity to that without chemical substance): 0.9
- The level of expressed mRNA in the presence of chemical substance/in the absence of chemical substance (yeast gene YCL018W): 1.3
- The level of expressed mRNA in the presence of chemical substance/The level of expressed mRNA in the absence of chemical substance (yeast gene YCL020W): 0.9
- The level of expressed mRNA in the presence of chemical substance/ (ratio to absence) (yeast gene YCL025C): 0.6
- The level of expressed mRNA in the presence of chemical substance/The level of expressed mRNA in the absence of chemical substance (yeast gene YCL027W): 0.7
- The level of expressed mRNA in the presence of chemical substance/ (ratio to absence) (yeast gene YCL038C): 1.4
- The level of expressed mRNA in the presence of chemical substance/in the absence of chemical substance (yeast gene YCL040W): 1.4
- The level of expressed mRNA in the presence of chemical substance/in the absence of chemical substance (yeast gene YCL043C): 0.9
- The level of expressed mRNA in the presence of chemical substance/in the absence of chemical substance (yeast gene YCL050C): 1.0
- The level of expressed mRNA in the presence of chemical substance/ (ratio to absence) (yeast gene YCL069W): 1.0
- The level of expressed mRNA in the presence of chemical substance/The level of expressed mRNA in the absence of chemical substance (yeast gene YCR004C): 1.4
- The level of expressed mRNA in the presence of chemical substance/in the absence of chemical substance (yeast gene YCR012W): 0.8
- The level of expressed mRNA in the presence of chemical substance/ (ratio to absence) (yeast gene YCR024C-A): 0.9
- The level of expressed mRNA in the presence of chemical substance/ (ratio to absence) (yeast gene YCR037C): 1.4
- The level of expressed mRNA in the presence of chemical substance/ (ratio to absence), gene YCR046C (yeast gene YCR046C, mitochondria-located protein genes, 2 h culture with chemical): 1.3
- The level of expressed mRNA in the presence of chemical substance/The level of expressed mRNA in the absence of chemical substance (yeast gene YCR071C): 1.2
- The level of expressed mRNA in the presence of chemical substance/ (ratio to absence), gene YCR083W (yeast gene YCR083W, mitochondria-located protein genes, 2 h culture with chemical): 1.3
- The level of expressed mRNA in the presence of chemical substance/ (ratio to absence of chemical substance) (yeast gene YCR083W, stress protein genes, DNA chip): 1.3
- The level of expressed mRNA in the presence of chemical substance/The level of expressed mRNA in the absence of chemical substance (yeast gene YCR088W): 1.4
- The level of expressed mRNA in the presence of chemical substance/ (ratio to absence) (yeast gene YCR098C): 1.7
- The level of expressed mRNA in the presence of chemical substance/in the absence of chemical substance (yeast gene YCR107W): 1.3
- The level of expressed mRNA in the presence of chemical substance/The level of expressed mRNA in the absence of chemical substance (yeast gene YDL008W): 1.5
- The level of expressed mRNA in the presence of chemical substance/in the absence of chemical substance (yeast gene YDL010W): 1.5
- The level of expressed mRNA in the presence of chemical substance/in the absence of chemical substance (yeast gene YDL021W): 1.9
- The level of expressed mRNA in the presence of chemical substance/in the absence of chemical substance (yeast gene YDL024C): 0.9
- The level of expressed mRNA in the presence of chemical substance/ in its absence, gene YDL067C (yeast gene YDL067C, energy system protein genes, 2 h culture with the chemical, ratio to control without chemical): 1.2
- The level of expressed mRNA in the presence of chemical substance/ (ratio to absence), gene YDL067C (yeast gene YDL067C, mitochondria-located protein genes, 2 h culture with chemical): 1.2
- The level of expressed mRNA in the presence of chemical substance/ in its absence, gene YDL078C (energy system protein genes, 2 h culture with the chemical, ratio to control without chemical): 1.1
- The level of expressed mRNA in the presence of chemical substance/ in its absence, gene YDL078C (ratio of DNA chip fluorescence intensity to that without chemical substance): 1.1
- The level of expressed mRNA in the presence of chemical substance/in the absence of chemical substance (yeast gene YDL095W): 0.7
- The level of expressed mRNA in the presence of chemical substance/ (yeast gene YDL113C): 1.2
- The level of expressed mRNA in the presence of chemical substance/ (yeast gene YDL123W): 1.1
- The level of expressed mRNA in the presence of chemical substance/in the absence of chemical substance (yeast gene YDL124W): 2.2
- The level of expressed mRNA in the presence of chemical substance/ (ratio to absence) (yeast gene YDL128W): 0.9
- The level of expressed mRNA in the presence of chemical substance/ (ratio to absence) (yeast gene YDL149W): 0.8
- The level of expressed mRNA in the presence of chemical substance/in the absence of chemical substance (yeast gene YDL174C): 2.2
- The level of expressed mRNA in the presence of chemical substance/ (ratio to absence) (yeast gene YDL198C): 1.5
- The level of expressed mRNA in the presence of chemical substance/ (ratio to absence) (yeast gene YDL206W): 1.0
- The level of expressed mRNA in the presence of chemical substance/ (ratio to absence) (yeast gene YDL210W): 1.1
- The level of expressed mRNA in the presence of chemical substance/ (in its absence), gene YDL215C (yeast gene YDL215C, ratio of DNA chip fluorescence intensity to that without chemical substance): 1.1
- The level of expressed mRNA in the presence of chemical substance/ (yeast gene YDL234C): 2.3
- The level of expressed mRNA in the presence of chemical substance/The level of expressed mRNA in the absence of chemical substance (yeast gene YDL238C): 1.1
- The level of expressed mRNA in the presence of chemical substance/ (yeast gene YDL242W): 0.9
- The level of expressed mRNA in the presence of chemical substance/in the absence of chemical substance (yeast gene YDL243C): 1.8
- The level of expressed mRNA in the presence of chemical substance/in the absence of chemical substance (yeast gene YDL245C): 1.0
- The level of expressed mRNA in the presence of chemical substance/ (ratio to absence) (yeast gene YDL245C): 1.0
- The level of expressed mRNA in the presence of chemical substance/in the absence of chemical substance (yeast gene YDL246C): 1.8
- The level of expressed mRNA in the presence of chemical substance/in the absence of chemical substance (yeast gene YDR001C): 1.1
- The level of expressed mRNA in the presence of chemical substance/ (yeast gene YDR018C): 0.9
- The level of expressed mRNA in the presence of chemical substance/ (ratio to absence) (yeast gene YDR038C): 1.3
- The level of expressed mRNA in the presence of chemical substance/ (ratio to absence) (yeast gene YDR039C): 1.1
- The level of expressed mRNA in the presence of chemical substance/ (ratio to absence) (yeast gene YDR040C): 1.4
- The level of expressed mRNA in the presence of chemical substance/The level of expressed mRNA in the absence of chemical substance (yeast gene YDR055W): 2.0
- The level of expressed mRNA in the presence of chemical substance/ (yeast gene YDR056C): 1.2
- The level of expressed mRNA in the presence of chemical substance/in the absence of chemical substance (yeast gene YDR058C): 1.1
- The level of expressed mRNA in the presence of chemical substance/in the absence of chemical substance (yeast gene YDR072C): 1.9
- The level of expressed mRNA in the presence of chemical substance/ (in its absence), gene YDR073W (yeast gene YDR073W, ratio of DNA chip fluorescence intensity to that without chemical substance): 1.8
- The level of expressed mRNA in the presence of chemical substance/ in its absence, gene YDR079W (yeast gene YDR079W, energy system protein genes, 2 h culture with the chemical, ratio to control without chemical): 1.1
- The level of expressed mRNA in the presence of chemical substance/ (ratio to absence), gene YDR079W (yeast gene YDR079W, mitochondria-located protein genes, 2 h culture with chemical): 1.1
- The level of expressed mRNA in the presence of chemical substance/The level of expressed mRNA in the absence of chemical substance (yeast gene YDR084C): 2.0
- The level of expressed mRNA in the presence of chemical substance/The level of expressed mRNA in the absence of chemical substance (yeast gene YDR085C): 1.3
- The level of expressed mRNA in the presence of chemical substance/The level of expressed mRNA in the absence of chemical substance (yeast gene YDR104C): 0.9
- The level of expressed mRNA in the presence of chemical substance/The level of expressed mRNA in the absence of chemical substance (yeast gene YDR115W): 1.2
- The level of expressed mRNA in the presence of chemical substance/in the absence of chemical substance (yeast gene YDR127W): 0.9
- The level of expressed mRNA in the presence of chemical substance/ (yeast gene YDR132C): 1.0
- The level of expressed mRNA in the presence of chemical substance/ (yeast gene YDR154C): 1.5
- The level of expressed mRNA in the presence of chemical substance/in the absence of chemical substance (yeast gene YDR158W): 1.0
- The level of expressed mRNA in the presence of chemical substance/ (yeast gene YDR202C): 1.0
- The level of expressed mRNA in the presence of chemical substance/in the absence of chemical substance (yeast gene YDR204W): 1.1
- The level of expressed mRNA in the presence of chemical substance/ (yeast gene YDR223W): 0.9
- The level of expressed mRNA in the presence of chemical substance/The level of expressed mRNA in the absence of chemical substance (yeast gene YDR259C): 1.0
- The level of expressed mRNA in the presence of chemical substance/in the absence of chemical substance (yeast gene YDR261C): 0.9
- The level of expressed mRNA in the presence of chemical substance/ (ratio to absence) (yeast gene YDR270W): 0.9
- The level of expressed mRNA in the presence of chemical substance/in the absence of chemical substance (yeast gene YDR272W): 1.4
- The level of expressed mRNA in the presence of chemical substance/ (yeast gene YDR295C): 0.8
- The level of expressed mRNA in the presence of chemical substance/ (in its absence), gene YDR297W (yeast gene YDR297W, ratio of DNA chip fluorescence intensity to that without chemical substance): 1.9
